According to USRE47689E1, “Compounds for treating spinal muscular atrophy” (PTC Therapeutics, Inc., priority 2011, dated 2019):

Legend:
[1] = test system: SMN2 minigene (full length SMN2 minigene mRNA containing SMN2 exon 7); experiment: SMN2 minigene mRNA splicing RT-qPCR assay in cultured cells; assay type: cell-based, human; conditions: Homo sapiens, HEK293-H; HEK293H cells stably transfected with SMN2-A minigene; 24 hours; 7-point concentration curve; 1.5-fold relative to vehicle-treated cells; read-out: EC1.5x for production of full length SMN2 mRNA
How it was run: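 Full-length SMN2 minigene mRNA (exon 7 included), minigene-specific and not endogenous SMN, quantified by RT-qPCR multiplexed with GAPDH in stably transfected HEK293H cells after 24 h compound exposure at 37° C. Abundance from efficiency-corrected Ct, normalized to GAPDH and vehicle; EC1.5x reported as star bins.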

Smn protein = Smn protein assay in cultured cells (SMN HTRF); assay type: cell-based, human; conditions: 48 hours; for maximum fold (Fold) increase of Smn protein: SMA patient fibroblast cells, 7-point concentration data, fold increase relative to vehicle control (SMN HTRF); for EC1.5x (concentration giving 1.5-fold Smn protein increase): SMA Type 1 patient fibroblast cells (GM03813), 7-point concentration curve, SMN HTRF, concentration producing 1.5 times Smn protein vs DMSO vehicle control, read-out: EC1.5x for Smn protein expression
How it was run: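 Smn in SMA fibroblast lysates, measured by anti-SMN HTRF after 48 h compound exposure; EC1.5x from fold change over vehicle.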

Row | Compound | melting point | EC (1.5-fold) [1] | maximum fold (Fold) increase of Smn protein (Smn protein) | EC1.5x (concentration giving 1.5-fold Smn protein increase) (Smn protein)
1 | COc1cc(OC)cc(-c2cc3ccc(N4CCN[C@@H](C)C4)cc3oc2=O)c1 [Compound 413, 3-(3,5-dimethoxyphenyl)-7-[(3S)-3-methylpiperazin-1-yl]-2H-chromen-2-one] | 149 to 151 °C | 1 to 3 µM | * (maximum fold increase of ≤1.2) | 
2 | Cc1cn2cc(-c3ccc4cc(N5CCNCC5)c(=O)oc4c3)ccc2n1 [Cpd 818, 7-(2-methylimidazo[1,2-a]pyridin-6-yl)-3-(piperazin-1-yl)-2H-chromen-2-one] | 174 to 178 °C | 1 to 3 µM | * (maximum fold increase of ≤1.2) | 
3 | O=c1oc2cc(N3CCNCC3)cc(F)c2cc1-c1cc(F)cc(F)c1 [Cpd 290, 3-(3,5-difluorophenyl)-5-fluoro-7-(piperazin-1-yl)-2H-chromen-2-one] | 193 to 198 °C | 0.3 to 1 µM | * (maximum fold increase of ≤1.2) | 
4 | O=c1oc2cc(N3CCNCC3)cc(F)c2cc1-c1nc2ccccc2[nH]1 [Compound 375, 3-(1H-benzimidazol-2-yl)-5-fluoro-7-(piperazin-1-yl)-2H-chromen-2-one] | 245 to 250 °C | 0.3 to 1 µM | ** (fold increase between >1.2 and ≤1.35) | 
5 | Cc1nccn2cc(-c3cc4ccc(N5CCCN(C)CC5)cc4oc3=O)cc12 [Compound 556, 7-(4-methyl-1,4-diazepan-1-yl)-3-(1-methylpyrrolo[1,2-a]pyrazin-7-yl)-2H-chromen-2-one] | 125 to 128 °C | 0.1 to 0.3 µM | *** (fold increase between >1.35 and ≤1.5) | 300 to 1000 nM
6 | Cc1ccn2cc(-c3cc4ccc(N[C@@H]5CCNC5)cc4oc3=O)nc2c1 [Compound 496, 3-(7-methylimidazo[1,2-a]pyridin-2-yl)-7-[(3R)-pyrrolidin-3-ylamino]-2H-chromen-2-one] | 244 to 254 °C | 0.3 to 1 µM | * (maximum fold increase of ≤1.2) | 
7 | O=c1oc2cc(N3CCNCC3)cc(F)c2cc1-c1cn2cccc(Cl)c2n1 [Compound 392, 3-(8-chloroimidazo[1,2-a]pyridin-2-yl)-5-fluoro-7-(piperazin-1-yl)-2H-chromen-2-one] | 241 to 250 °C | 0.3 to 1 µM | ** (fold increase between >1.2 and ≤1.35) | 
8 | Cc1csc2nc(-c3cc4ccc(N5CCNCC5)cc4oc3=O)cn12 [Compound 98, 3-(3-methylimidazo[2,1-b][1,3]thiazol-6-yl)-7-(piperazin-1-yl)-2H-chromen-2-one] | > 300 °C | 1 to 3 µM | *** (fold increase between >1.35 and ≤1.5) | 1000 to 3000 nM
9 | Cc1ccn2cc(-c3cc4ccc(N5CCNC6(CCC6)C5)cc4oc3=O)nc2c1 [Compound 595, 7-(5,8-diazaspiro[3.5]non-8-yl)-3-(7-methylimidazo[1,2-a]pyridin-2-yl)-2H-chromen-2-one] | 226 to 233 °C | 0.3 to 1 µM | ** (fold increase between >1.2 and ≤1.35) | 
10 | O=c1oc2cc(N3CCNCC3)ccc2cc1-c1nc2cc(F)ccc2[nH]1 [Compound 395, 3-(5-fluoro-1H-benzimidazol-2-yl)-7-(piperazin-1-yl)-2H-chromen-2-one] | 295 to 300 °C | 0.3 to 1 µM | * (maximum fold increase of ≤1.2) | 
11 | C[C@@H]1CN(c2ccc3cc(-c4cn5ccsc5n4)c(=O)oc3c2)C[C@H](C)N1 [Compound 167, 7-[(3R,5S)-3,5-dimethylpiperazin-1-yl]-3-(imidazo[2,1-b][1,3]thiazol-6-yl)-2H-chromen-2-one] | 263 to 265 °C | 0.3 to 1 µM | ** (fold increase between >1.2 and ≤1.35) | 
12 | Cc1ccn2cc(-c3cc4ccc(N5CCCN(C)CC5)cc4oc3=O)nc2c1 [Compound 217, 7-(4-methyl-1,4-diazepan-1-yl)-3-(7-methylimidazo[1,2-a]pyridin-2-yl)-2H-chromen-2-one] | 200 to 206 °C | 0.3 to 1 µM | *** (fold increase between >1.35 and ≤1.5) | 
13 | Cc1c(-c2cn3cc(Cl)ccc3n2)c(=O)oc2cc(N3CCNCC3)ccc12 [Cpd 112, 3-(6-chloroimidazo[1,2-a]pyridin-2-yl)-4-methyl-7-(piperazin-1-yl)-2H-chromen-2-one] | 224 to 227 °C | 3 to 30 µM | * (maximum fold increase of ≤1.2) | 
14 | CN1CCN(c2ccc3cc(-c4cn(C)c5ccccc45)c(=O)oc3c2)CC1 [Compound 259, 3-(1-methyl-1H-indol-3-yl)-7-(4-methylpiperazin-1-yl)-2H-chromen-2-one] | 185 to 187 °C | 1 to 3 µM | * (maximum fold increase of ≤1.2) | 
15 | COc1c(F)cc(F)cc1-c1cc2ccc(N3CCN[C@@H](C)C3)cc2oc1=O [Compound 539, 3-(3,5-difluoro-2-methoxyphenyl)-7-[(3S)-3-methylpiperazin-1-yl]-2H-chromen-2-one] | 156 to 158 °C | 3 to 30 µM | * (maximum fold increase of ≤1.2) | 
16 | Cc1cccc2nc(-c3cc4ccc(N5CCN(C)CC5)cc4oc3=O)cn12 [Compound 135, 3-(5-methylimidazo[1,2-a]pyridin-2-yl)-7-(4-methylpiperazin-1-yl)-2H-chromen-2-one] | 263 to 272 °C | 0.3 to 1 µM | ** (fold increase between >1.2 and ≤1.35) | 

Continued, in another order:

Row | melting point | Compound | EC (1.5-fold) [1] | maximum fold (Fold) increase of Smn protein (Smn protein) | EC1.5x (concentration giving 1.5-fold Smn protein increase) (Smn protein)
17 | 191 to 193 °C | Cc1cn2cc(-c3cc4ccc(CN5CCCCC5)cc4oc3=O)nc2c(C)n1 [Compound 847, 3-(6,8-dimethylimidazo[1,2-a]pyrazin-2-yl)-7-(piperidin-1-ylmethyl)-2H-chromen-2-one] | 1 to 3 µM | ** (fold increase between >1.2 and ≤1.35) | 
18 | 236 to 243 °C | Cc1cn2cc(-c3cc4ccc(C5CCN(C6CC6)CC5)cc4oc3=O)nc2c(C)n1 [Compound 854, 7-(1-cyclopropylpiperidin-4-yl)-3-(6,8-dimethylimidazo[1,2-a]pyrazin-2-yl)-2H-chromen-2-one] | < 0.1 µM | ***** (fold increase >1.65) | < 300 nM
19 | 217 to 220 °C | Cc1cn2cc(-c3cc4ccc(N5CCN(C6CCC6)CC5)cc4oc3=O)cc2c(C)n1 [Compound 814, 7-(4-cyclobutylpiperazin-1-yl)-3-(1,3-dimethylpyrrolo[1,2-a]pyrazin-7-yl)-2H-chromen-2-one] | < 0.1 µM | ***** (fold increase >1.65) | < 300 nM
20 | 191 to 198 °C | Cc1cc(F)cn2cc(-c3cc4ccc(N5CCCN(C)CC5)cc4oc3=O)nc12 [Compound 330, 3-(6-fluoro-8-methylimidazo[1,2-a]pyridin-2-yl)-7-(4-methyl-1,4-diazepan-1-yl)-2H-chromen-2-one] | 0.3 to 1 µM | * (maximum fold increase of ≤1.2) | 
21 | 247 to 250 °C | O=c1oc2cc(N3CCN(CCO)CC3)ccc2cc1-c1cn2cccc(Cl)c2n1 [Compound 121, 3-(8-chloroimidazo[1,2-a]pyridin-2-yl)-7-[4-(2-hydroxyethyl)piperazin-1-yl]-2H-chromen-2-one] | 0.3 to 1 µM | *** (fold increase between >1.35 and ≤1.5) | 
22 | 190 to 196 °C | Cc1cn2cc(-c3cc4ccc(O[C@@H]5CCN(CCO)C5)cc4oc3=O)nc2c(C)n1 [Compound 892, 3-(6,8-dimethylimidazo[1,2-a]pyrazin-2-yl)-7-{[(3R)-1-(2-hydroxyethyl)pyrrolidin-3-yl]oxy}-2H-chromen-2-one] | < 0.1 µM | **** (fold increase between >1.5 and ≤1.65) | < 300 nM
23 | 260 to 270 °C | Cc1cn2cc(-c3cc4ccc(C5CCN(CC(C)C)CC5)cc4oc3=O)nc2cn1 [Compound 916, 3-(6-methylimidazo[1,2-a]pyrazin-2-yl)-7-[1-(2-methylpropyl)piperidin-4-yl]-2H-chromen-2-one] | 0.1 to 0.3 µM | **** (fold increase between >1.5 and ≤1.65) | 300 to 1000 nM
24 | 172 to 176 °C | CCc1cc(C)cn2cc(-c3cc4ccc(N5CCCN(C)CC5)cc4oc3=O)nc12 [Compound 332, 3-(8-ethyl-6-methylimidazo[1,2-a]pyridin-2-yl)-7-(4-methyl-1,4-diazepan-1-yl)-2H-chromen-2-one] | 0.3 to 1 µM | * (maximum fold increase of ≤1.2) | 
25 | 231 to 241 °C | Cc1ccn2cc(-c3cc4ccc(N5CCN(C)[C@@H](C)C5)cc4oc3=O)nc2c1 [Compound 379, 7-[(3S)-3,4-dimethylpiperazin-1-yl]-3-(7-methylimidazo[1,2-a]pyridin-2-yl)-2H-chromen-2-one] | 0.3 to 1 µM | *** (fold increase between >1.35 and ≤1.5) | 
